Data on one compound can be found in paper PMC12337082 (Journal of Biochemical and Molecular Toxicology, 2025).

What all share (format): cell-based, human
One experiment deals with PGE2 release. Description: PGE2 ELISA, MCF‐7. The settings on record: Homo sapiens, MCF7; MCF‐7, 50 µM, 24 h. On the procedure:
PGE2 ELISA kit (ENZO, ADI‐900‐001) was used to determine prostaglandin synthesis levels. MCF‐7 and MDA‐MB‐231 breast cancer cells were cultured at a density of 1 × 10^6 cells/well in a 6‐well culture dish. […] Following 24 h of incubation, the medium was replaced with a fresh one, 10 µM arachidonic acid was added, and it was further incubated for 1 h. The PGE2 levels were determined according to the kit protocol.

The subject of experiment [1] is MCF‐7. Description: MTT cell viability assay, MCF‐7. To be noted: for IC50: Homo sapiens, MCF7, MTT. From the text:
MCF‐7, MDA‐MB‐231, and L‐929 mouse fibroblast cell lines were obtained from the American Type Culture Collection (ATCC, Manassas, Virginia, USA). MCF‐7 is a hormone‐responsive, differentiated mammary epithelium cell line with an ER+, PR+, and HER2‐ pattern (ATCC, HTB‐22). MDA‐MB‐231 is a triple‐negative differentiated mammary epithelium cell line (ATCC, HTB‐26). The L‐929 mouse fibroblast cell line is derived from the normal subcutaneous connective tissue of a mouse and is commonly used in cytotoxicity assays (ATCC, CCL‐1). All cell lines were cultured in DMEM medium (Dulbecco's Modified Eagle Medium, Gibco), supplemented with 10% fetal bovine serum (Gibco), 1% glutamine, and penicillin/streptomycin (Gibco) in a humidified atmosphere containing 5% CO2 at 37°C. Cell viability was tested using Trypan blue staining.
The MTT [3‐(4,5‐dimethylthiazol‐2‐yl)−2,5‐diphenyltetrazolium bromide] assay is a colorimetric assay for determining cell metabolic activity. In the MTT assay, the yellow dye MTT that dissolves in water is changed by mitochondrial reductase into a purple formazan that is non‐soluble. The water‐insoluble formazan produced is solubilized in a solubilization buffer, and absorbances are detected.
In 96‐well plates, the cells were cultivated at a density of 5 × 10^3 cells/well using 100 µL medium. […] 10 μL of the MTT labeling reagent (final concentration 0.5 mg/mL) were added to each well at the end of the incubation periods, and the wells were incubated for an additional 4 h. Next, each well received 100 μL of solubilization buffer (10% SDS in 0.01 M HCl) and was overnight incubated, and the absorbance of formazan products was evaluated at 550 nm using a multi‐mode microplate reader (Synergy H1, Biotech Instruments Inc., Vermont, USA). The results were normalized relative to the absorbances of calculated percent concentrations of DMSO. All tests involved three replicates with three independent experiments.
All statistical evaluations, including t‐tests and IC50 values, were calculated using the GraphPad Prism software tool (v6.0, GraphPad Software Inc., San Diego, USA). Statistical significance was defined as p ˂ 0.05 (*p < 0.05, **p < 0.01, ***p < 0.001, ****p < 0.0001).

For experiment [2], the system named is MCF‐7. Description: Annexin V/PI staining, Tali image‐based cytometry, MCF‐7. To be noted: MCF‐7, 24 h. From the text: To assess apoptosis and cell death, cells were stained with Annexin V‐PI dyes (Tali Apoptosis Kit‐Annexin V Alexa Fluor 488 and PI‐, Molecular Probes A10788, Invitrogen) and quantified using Tali Image‐Based Cytometer (Invitrogen) and fluorescence microscopy (Olympus CKX41 Inverted Phase Contrast Fluorescence Microscope furbished with reflected fluorescence illuminator CKX‐RFA).
To assess whether our compounds produce their cytotoxic effects through induction of apoptosis, apoptosis was investigated using Annexin V/PI labeling and MMP methods (Figures 4A−C). In addition, by utilizing TALI image‐based cytometry and fluorescent microscopy, the number of cells was analyzed for different concentrations of agents (Table 4).

Structures are written as SMILES.

The compound `CCc1cccc2c3c([nH]c12)C(CC)(CC(=O)N/N=C/c1ccc(OC)cc1)OCC3` (racemic) [SGK 206, 2‐(1,8‐Diethyl‐1,3,4,9‐tetrahydropyrano[3,4‐b]indole‐1‐yl) acetic acid[(4‐methoxyphenyl)methylene]acetohydrazide] had an inhibition at 50 µM with PGE2 release of 90%. Also, the IC50 came out at 37 ± 1.74 µM in the experiment on MCF‐7 [1] (MCF‐7, 24 h); 34 ± 5.7 µM in the experiment with MCF‐7 [1] (MCF‐7, 48 h); 26 ± 0.66 µM in the experiment with MCF‐7 [1] (MCF‐7, 72 h). Moreover, the “Selectivity index (SI)” value in the experiment with MCF‐7 [1] (MCF‐7 in comparison to L‐929, 24 h) is 1.93; in the experiment with MCF‐7 [1] (MCF‐7 in comparison to L‐929, 48 h) it was 1.4; in the experiment with MCF‐7 [1] (MCF‐7 in comparison to L‐929, 72 h), 1.91. For the same compound, the Apoptotic cells was found to be 2% with MCF‐7 [2] (25 µM), 4% in the experiment on MCF‐7 [2] (50 µM) and 19% in the experiment with MCF‐7 [2] (75 µM). The values for the Dead cells in the experiment with MCF‐7 [2] (25 µM), with MCF‐7 [2] (50 µM) and with MCF‐7 [2] (75 µM) were 9%, 15% and 19%, respectively. The Live cells with MCF‐7 [2] (25 µM) is 89%; with MCF‐7 [2] (50 µM), 81%; in the experiment on MCF‐7 [2] (75 µM), 62%.
